Legend:
[1] = tested on: larval per3-luc zebrafish; test: In vivo luminescence rhythms in per3-luc zebrafish; settings: up to 9 µM
Protocol: The per3-luc transgenic line was obtained from Zebrafish International Resource Center. Hemizygote larval fish were entrained in 12 h light/12 h dark cycles from day 3 to 6 postfertilization. They were then placed in an individual well of a 96-well white solid-bottom plate with 180 µl of E3 solution (5 mM NaCl, 0.17 mM KCl, 0.33 mM CaCl2, and 0.33 mM MgSO4, pH 7.0) containing 0.5 mM luciferin, 0.013% Amquel Plus Instant Water Detoxifier (Kordon brand; Novalek, Hayward, California, United States), and various concentrations of longdaysin (final 0.1% DMSO). The plate was covered with optically clear film, and the luminescence was recorded every 36 min by using the Tecan luminometer at 25°C. The period parameter was obtained from the luminescence rhythm by using MultiCycle software.

[2] = tested on: SCN explants; test: Circadian period in SCN explants from mPer2Luc knockin mice; assay type: cell-based, mouse; settings: 0 to 9 µM
Protocol: Explants of lung and SCN were dissected from mPer2^Luc knockin mice and cultured in explant medium as described previously. The medium was changed every week with increasing concentration of longdaysin each time (from 0 to 9 µM, final 0.7% DMSO). The luminescence was recorded every 10 min with LumiCycle luminometer (Actimetrics), and the period parameter was obtained by using LumiCycle Analysis software (Actimetrics).

[3] = tested on: CKIα- and CKIδ-accelerated degradation of PER1; test: Flag-tagged PER1 degradation by Western blot in HEK293T cells; assay type: cell-based; settings: 24 h
[4] = biological target: p38α (Homo sapiens, UniProt Q16539); test: In vitro kinase assay, p38α (unpublished data); assay type: biochemical
Sequence of p38α (Q16539 whole entry): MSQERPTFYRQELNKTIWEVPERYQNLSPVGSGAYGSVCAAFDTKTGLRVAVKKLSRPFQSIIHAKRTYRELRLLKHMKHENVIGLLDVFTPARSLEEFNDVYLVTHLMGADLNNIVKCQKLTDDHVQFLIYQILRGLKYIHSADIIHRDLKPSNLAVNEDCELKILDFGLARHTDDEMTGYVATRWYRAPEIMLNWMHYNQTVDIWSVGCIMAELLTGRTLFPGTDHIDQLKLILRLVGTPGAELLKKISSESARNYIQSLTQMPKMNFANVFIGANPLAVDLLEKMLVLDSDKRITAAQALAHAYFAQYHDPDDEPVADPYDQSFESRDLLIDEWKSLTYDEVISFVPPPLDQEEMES

[5] = tested on: Bmal1-dLuc U2OS cells; test: Cytotoxicity in the U2OS circadian assay; assay type: cell-based, human
Protocol: The compound screen was done with the high-throughput circadian assay system as described previously. In brief, Bmal1-dLuc U2OS cells were suspended in the culture medium (DMEM supplemented with 10% fetal bovine serum, 0.29 mg/ml L-glutamine, 100 units/ml penicillin, and 100 µg/ml streptomycin) and plated onto 384-well white solid-bottom plates at 20 µl (2,000 cells) per well. After 2 d, 50 µl of the explant medium (DMEM supplemented with 2% B27, 10 mM HEPES, 0.38 mg/ml sodium bicarbonate, 0.29 mg/ml L-glutamine, 100 units/ml penicillin, 100 µg/ml streptomycin, 0.1 mg/ml gentamicin, and 1 mM luciferin, pH 7.2) was dispensed to each well, followed by the application of 500 nl of compounds (dissolved in DMSO; final 0.7% DMSO). The plate was covered with an optically clear film and set to luminescence monitoring system equipped with a CCD imager (ViewLux, Perkin Elmer). The luminescence was recorded every 2 h for 3–4 days. In follow-up studies, the luminescence was recorded every 100 min by using a microplate reader (Infinite M200, Tecan). The period parameter was obtained from the luminescence rhythm by curve fitting program CellulaRhythm or MultiCycle (Actimetrics), both of which gave similar results.

[6] = biological target: T1, CDK7 (Homo sapiens, UniProt P50613); test: In vitro kinase assay, CDK7; assay type: biochemical; settings: ATP 5 µM; from Figure 2E
T1 construct: purchased Millipore 14-476
T1 sequence (P50613 whole entry): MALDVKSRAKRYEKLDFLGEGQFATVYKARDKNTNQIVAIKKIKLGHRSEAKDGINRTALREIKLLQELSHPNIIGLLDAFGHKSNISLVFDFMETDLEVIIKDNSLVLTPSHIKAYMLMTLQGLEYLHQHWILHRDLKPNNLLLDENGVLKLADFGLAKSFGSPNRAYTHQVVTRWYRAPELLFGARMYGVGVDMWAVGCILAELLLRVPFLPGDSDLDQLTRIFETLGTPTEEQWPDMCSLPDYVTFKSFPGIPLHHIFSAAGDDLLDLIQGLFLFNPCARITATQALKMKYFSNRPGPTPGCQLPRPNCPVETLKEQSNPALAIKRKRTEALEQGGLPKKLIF
T1 sequence (P51946 whole entry partner): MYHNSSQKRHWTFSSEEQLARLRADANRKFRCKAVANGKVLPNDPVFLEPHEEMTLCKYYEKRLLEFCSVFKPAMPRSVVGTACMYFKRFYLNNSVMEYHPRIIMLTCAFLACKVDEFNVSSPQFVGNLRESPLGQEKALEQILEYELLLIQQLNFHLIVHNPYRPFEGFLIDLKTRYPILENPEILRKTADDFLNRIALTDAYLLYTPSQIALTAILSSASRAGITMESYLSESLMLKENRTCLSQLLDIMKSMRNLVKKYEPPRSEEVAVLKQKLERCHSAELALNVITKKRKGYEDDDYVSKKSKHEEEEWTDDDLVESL
T1 sequence (P51948 whole entry partner): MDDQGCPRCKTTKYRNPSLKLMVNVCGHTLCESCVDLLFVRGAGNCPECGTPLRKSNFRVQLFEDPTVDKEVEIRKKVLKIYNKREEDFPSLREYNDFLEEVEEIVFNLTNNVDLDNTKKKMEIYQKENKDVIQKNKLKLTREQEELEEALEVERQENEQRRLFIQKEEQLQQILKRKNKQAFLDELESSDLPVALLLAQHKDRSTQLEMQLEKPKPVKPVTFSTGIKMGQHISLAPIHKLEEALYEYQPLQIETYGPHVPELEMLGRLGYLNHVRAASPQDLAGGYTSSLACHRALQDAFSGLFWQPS
Protocol: (§1) The CKIδ, CKIα, CDK7, and ERK2 kinase assays were performed on 384-well plates (10 µl volume). The reaction mixture was as follows: for CKIδ, 2 ng/µl CKIδ (Millipore, 14-520), 50 µM peptide substrate RKKKAEpSVASLTSQCSYSS corresponding to human PER2 Lys659-Ser674 [47], and CKI buffer (40 mM Tris, 10 mM MgCl2, 0.5 mM DTT, 0.1 mg/ml BSA, pH 7.5); for CKIα, 1 ng/µl CKIα (Invitrogen, PV3850), 50 µM CKI peptide substrate (Anaspec, 60547-1), and CKI buffer; for CDK7, 5 ng/µl CDK7 (Millipore, 14-476), 100 µM Cdk7/9 peptide substrate (Millipore, 12-526), and CKI buffer; for ERK2, 1.5 ng/µl ERK2 (Millipore, 14-550), 0.8 µg/µl MBP (Millipore, 13-104), and ERK buffer (50 mM Tris, 10 mM MgCl2, 0.5 mM DTT, 1 mM EGTA, pH 7.5). Five hundred nl of compound was added to the mixture (final 5% DMSO), and the reaction was started by adding ATP (final 5 µM). After incubation at 30°C for 3h, 10 µl of Kinase-Glo Luminescent Kinase Assay reagent (Promega) was added, and the luminescence was detected to determine remaining ATP amount. […] IC50 value was obtained by using Prism software (GraphPad Software).

[7] = biological target: T2, CKIδ (Homo sapiens, UniProt P48730); test: In vitro kinase assay, CKIδ; assay type: biochemical; parameters: purchased Millipore 14-520; settings: ATP 5 µM; from Figure 2E
T2 sequence (P48730 whole entry, species assumed): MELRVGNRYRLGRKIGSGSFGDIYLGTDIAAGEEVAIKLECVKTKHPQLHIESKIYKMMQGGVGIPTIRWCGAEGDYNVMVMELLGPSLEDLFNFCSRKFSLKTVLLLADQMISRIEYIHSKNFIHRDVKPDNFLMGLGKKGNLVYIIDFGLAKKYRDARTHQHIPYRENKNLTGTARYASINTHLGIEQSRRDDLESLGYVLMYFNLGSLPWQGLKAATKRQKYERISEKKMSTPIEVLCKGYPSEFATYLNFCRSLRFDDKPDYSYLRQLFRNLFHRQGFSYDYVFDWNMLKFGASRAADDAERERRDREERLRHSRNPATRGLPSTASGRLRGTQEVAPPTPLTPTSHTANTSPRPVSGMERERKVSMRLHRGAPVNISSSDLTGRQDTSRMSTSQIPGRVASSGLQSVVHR
Protocol: as §1

[8] = tested on: adult tail fibroblasts; test: Circadian period in adult tail fibroblasts from mPer2Luc knockin mice; assay type: cell-based, mouse
Protocol: (§2) Luminescence rhythms of adult tail fibroblasts and embryonic fibroblasts from mPer2^Luc knockin mice were analyzed similarly to U2OS cells, except that 1,800 cells were plated per well. Because of the low luminescence intensity of the fibroblasts, the higher sensitivity ViewLux imager was used for rhythm recording.

[9] = biological target: T3, CKIα (Homo sapiens, UniProt P48729); test: Cell-based PER1 degradation assay (PER1-LUC), CKIα
T3 sequence (P48729 whole entry, the tested form may be a part): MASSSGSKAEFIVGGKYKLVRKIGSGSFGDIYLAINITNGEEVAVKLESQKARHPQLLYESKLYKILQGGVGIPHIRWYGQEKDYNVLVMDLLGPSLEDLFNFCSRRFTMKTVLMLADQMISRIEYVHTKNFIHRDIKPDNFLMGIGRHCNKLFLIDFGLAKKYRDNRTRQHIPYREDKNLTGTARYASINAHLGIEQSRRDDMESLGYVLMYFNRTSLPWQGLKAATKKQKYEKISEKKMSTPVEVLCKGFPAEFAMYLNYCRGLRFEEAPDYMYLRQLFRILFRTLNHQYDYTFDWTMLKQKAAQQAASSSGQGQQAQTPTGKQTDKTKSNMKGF
Protocol: (§3) HEK293T cells (6.0×10^4 cells) were reverse transfected on 96-well white solid-bottom plates by Lipofectamine 2000 with 40 ng each of expression vectors for C-terminally luciferase-fused PER1 (in p3XFLAG-CMV-14) and N-terminally HA-tagged kinase (in p3XFLAG-CMV-14). For luciferase (in p3XFLAG-CMV-14), 2 ng of expression vector with 38 ng of empty vector was used because of its efficient expression. After 48 h, the medium was supplemented with luciferin (final 1 mM) and HEPES-NaOH (pH 7.2; final 10 mM). After 1 h, cycloheximide (final 20 µg/ml) was added to the medium, and the plate was covered with optically clear film. The luminescence was recorded every 10 min by using the Tecan luminometer. Half-life was obtained by using Prism software (GraphPad Software).

[10] = biological target: T2, CKIδ; test: Cell-based PER1 degradation assay (PER1-LUC), CKIδ
Protocol: as §3

[11] = biological target: T3, CKIα; test: In vitro kinase assay, CKIα; assay type: biochemical; parameters: purchased Invitrogen PV3850; settings: ATP 5 µM; from Figure 2E
Protocol: as §1

[12] = tested on: embryonic fibroblasts; test: Circadian period in embryonic fibroblasts from CKIδ deficient mPer2Luc knockin mice; assay type: cell-based, mouse
Protocol: as §2

[13] = HEK293T cells, 24 h treatment, from Figure 4E

In the case of `CC(C)n1cnc2c(NCc3cccc(C(F)(F)F)c3)ncnc21` [Longdaysin, 9-isopropyl-N-(3-(trifluoromethyl)benzyl)-9H-purin-6-amine], the “Effect on body size” value ([1]; 1 wk treatment) is reported as “without affecting body size”, the “Period lengthening in vivo” value ([1]; per3-luc reporter fish, constant darkness) is reported as > 10 h and the “Effect on circadian period” value [2] is reported as “dose-dependent period lengthening”. The “Inhibition of CKIα and CKIδ effects on PER1 degradation” value ([3]; 10 µM) was “partially inhibited”, the “Inhibition of CKIα and CKIδ effects on PER1 degradation” value ([3]; 20 µM) was “strongly inhibited” and the “Effect on p38α activity” value [4] was “much less effect”. The Concentration showing cytotoxicity [5] was 71 µM, the IC50 [6] was 29 µM and the IC50 [7] was 8.8 µM. The “Effect on circadian period” value [8] was “dose-dependent period lengthening”, the EC50 [9, 13] was 9.2 µM and the “Effect on CKIα-dependent degradation of PER1” value ([9]; HEK293T, 0 to 20 µM, 24 h) was “inhibited by longdaysin treatment in a dose-dependent manner”. The EC50 [10, 13] was 9.7 µM, the “Effect on CKIδ-dependent degradation of PER1” value ([10]; HEK293T, 0 to 20 µM, 24 h) was “inhibited by longdaysin treatment in a dose-dependent manner” and the IC50 [11] was 5.6 µM. The “Effect on circadian period” value ([12]; CKIδ deficient (CKIδΔ2/Δ2) cells) was “lengthened the period in a dose-dependent manner” and the “Effect on circadian period” value ([12]; wild type (CKIδ+/+) cells) was “lengthened the period in a dose-dependent manner”.
